In one data set the target is T1, BTK WT (Homo sapiens, UniProt Q06187).
T1 construct: purchased Invitrogen PV3363
The data set is described as follows: Lantha screening kinase reaction experiment (BTK WT inhibition). Format: biochemical. How it is done: The compound was predissolved in 100% DMSO. 10 mM drug stock solution was obtained by dissolution at room temperature and then serially diluted with 8 vol % DMSO solution to a final concentration of 10-0.005 μM. 2.5 μl of a solution of substance to be tested and 2.5 μl of kinase (Invitrogen PV3363) diluted with the reaction buffer were added into each well of 384-well plate (Corning 3676), and then the mixture of Fluososcei-PolyGT (Invitrogen PV3610) substrate and ATP (Invitrogen PV3227) diluted with 5 μl of the reaction buffer were added to initiate the reaction. Among the wells, the kinase in the blank well was replaced with a reaction buffer and the kinase well (Enzyme) was not added with any drug. After shaking at 25° C. for 60 minutes in the dark, 10 μl of Detection Solution (mixture of Invitrogen PV3528 and EDTA, which was diluted with TR-FRET dilution buffer, the working concentration of EDTA was 5 mM, the working concentration of Lanthascreening Tb PY20 antibody was 0.2 nM) was added and shaken at room temperature for 30 minutes. The plates were read on a VictorX5 fluorescent plate reader (PerkinElmer) and the light absorption at an excitation wavelength of 340 nm and emission wavelengths of 500 nm and 520 nm was measured. […]
2. […] The half-inhibitory concentration IC50 was calculated by fitting with XLFIT 5.0 software (IDBS, UK).

A further data set deals with T2, βBTK Y223 (Homo sapiens, UniProt Q06187).
T2 construct: endogenous in cells; host or cells: Ramos cells
Briefly: Intracellular βBTK Y223 phosphorylation HTRF detection in Ramos cells. Particulars: sodium pervanadate. It is filed as cell-based. The method, then:
The compound was predissolved in 100% DMSO. 10 mM drug stock solution was obtained by dissolution at room temperature and then serially diluted with 5 vol % DMSO solution to a final concentration of 3-0.0014 μM. Ramos cells were seeded into 96-well plates at a density of 4×10^5/well with 45 μl of 1640 medium containing 10% (V/V) FBS per well, and 5 μl of diluted solution of substance to be tested was added to each well, which was incubated for 1 hour at 37° C., 5% (V/V) CO2. 10 μl of sodium pervanadate dilution (diluted with 1640 without serum) was added, and to the negative control wells was added 10 μl of serum-free medium, which was incubated at 25° C. for 30 minutes on a shaker. 20 μl of lysate (4× lysate: blocked mother liquor is 25:1) was added to each well and incubated for 30 minutes at 25° C. on a shaker. It was shaken on an oscillator at 800 rpm for 1 minute. […] The plates were read on a VictorX5 fluorescent plate reader (PerkinElmer) and the light absorption at an excitation wavelength of 317 nm and emission wavelengths of 500 nm and 520 nm was measured (referring to the specification of 63ADK017PEH, Cisbio). The half-inhibitory concentration IC50 was calculated by fitting with XLFIT 5.0 software (IDBS, UK).

Another data set has as its target T3, wild-type EGFR kinase (Homo sapiens, UniProt P00533).
T3 construct: purchased Invitrogen PV3872
Briefly: Wild type EGFR kinase inhibition test (z-lyte). Format: biochemical. How it is done:
All the following reagents used in z-lyte test are commercially available from Invitrogen.
The inhibitory effects of compounds to be tested on wild-type EGFR kinase (Invitrogen, PV3872) were measured by z-lyte methods.
The working concentration of each component in 10 μl wild-type EGFR kinase reaction system was: 10 μM ATP, 0.8 ng/μl wild-type EGFR kinase (Invitrogen, PV3872), 2 μM Tyr04 substrate (Invitrogen, PV3193). After the compounds to be tested were added, the final concentration of DMSO was 2%.
10 mM drug stock solutions dissolved at room temperature were gradiently diluted with 4% DMSO in water to a final concentrations of 10-0.005 μM. To each well were added 2.5 μl of a solution of the compounds to be tested and 5 μl of a mixture of wild-type EGFR kinase and Tyr04 substrate diluted with a reaction buffer, and then 2.5 μl of ATP was added to initiate the reaction. […] The plates were read in a VictorX5 fluorescent microplate reader (PerkinElmer) and the light absorbance at an excitation wavelength of 405 nm and emission wavelengths of 450 nm and 520 nm was measured (For example, C3520 nm represents the reading of C3 well at 520 nm). […]
The half-inhibitory concentration IC50 was calculated by fitting with XLFIT 5.0 software (IDBS, UK).

Data set [1] can be described thus: Stability experiment (40° C./75% RH accelerated stability box and 60° C. oven). Format: physicochemical. How it is done: The compound of formula X (amorphous) and crystal form A are placed in a 40° C./75% RH accelerated stability box and a 60° C. oven respectively, and take samples at fixed time points.
The nature of a further data set: Solubility experiment. It is filed as physicochemical. The method, then:
About 5 mg of the compound of formula X (amorphous), crystal form I and crystal form A were weighed into each centrifuge tube, and 0.5 ml or 1 ml of corresponding medium was added, and ultrasonic vibration is conducted to make it dissolved as much as possible to form a supersaturated solution, centrifuged and the supernatant (if the solubility is high, dilute it) was taken into the liquid chromatography to calculate the solubility, 5.69 mg of the compound of formula X (amorphous) can be completely dissolved in 0.5 ml of 0.1M HCl medium, 4.24 mg of crystal form I can be completely dissolved in 1 ml of 0.1M HCl medium, the experimental results are shown in table 12: […]

Data set [2] is described as follows: Stability experiment of the crystal forms of the free base (mixed forms shaken under suspension in solvents, XRD). It is filed as physicochemical. The conditions noted are these: 50° C. 1 day, room temperature 1 day and 7 days. How it is done: 80 mg of the compound of formula X in amorphous form, crystal form I, crystal form II and crystal form III were weighed respectively, and mixed them in a sample bottle; 20 mg of the mixture was weighed into each centrifuge tube, a total of 15 samples (5 experimental solvents, 3 experimental conditions); Experimental solvents: acetone, acetonitrile, ethyl acetate, isopropanol and ethanol; Experimental conditions: 1 day and 7 days at room temperature, 1 day at 50° C. The experimental conditions and results are as follows: […]

Data set [3] is described as follows: Stability experiment of crystal form I (60° C. oven). Format: physicochemical. How it is done: The sample is weighed and placed in an oven at 60° C., and taken for test at a fixed time point.
The nature of data set [4]: Thermogravimetric analysis (TGA). It is filed as physicochemical. Particulars: below 250° C. The text has this:
TGA and DSC pattern: TGA and DSC pattern were collected on TA Q500/5000 thermogravimetric analyzer and TA Q200/2000 differential scanning calorimeter respectively.

Data set [5] is described as follows: Dynamic Vapor Sorption (DVS). It is filed as physicochemical. How it is done: The Dynamic Vapor Sorption (DVS) curve: acquired on the DVS Intrinsic of Surface Measurement Systems. The relative humidity at 25° C. is corrected with the deliquescence points of LiCl, Mg (NO3)2 and KCl.

Structures are written as SMILES. In brackets after ≈: the same amount, converted by molar mass. Read-outs that look alike come from different tables or passages of the source. Where only a bound is given, the exact number is not on record here.

T1 sequence (Q06187 whole entry): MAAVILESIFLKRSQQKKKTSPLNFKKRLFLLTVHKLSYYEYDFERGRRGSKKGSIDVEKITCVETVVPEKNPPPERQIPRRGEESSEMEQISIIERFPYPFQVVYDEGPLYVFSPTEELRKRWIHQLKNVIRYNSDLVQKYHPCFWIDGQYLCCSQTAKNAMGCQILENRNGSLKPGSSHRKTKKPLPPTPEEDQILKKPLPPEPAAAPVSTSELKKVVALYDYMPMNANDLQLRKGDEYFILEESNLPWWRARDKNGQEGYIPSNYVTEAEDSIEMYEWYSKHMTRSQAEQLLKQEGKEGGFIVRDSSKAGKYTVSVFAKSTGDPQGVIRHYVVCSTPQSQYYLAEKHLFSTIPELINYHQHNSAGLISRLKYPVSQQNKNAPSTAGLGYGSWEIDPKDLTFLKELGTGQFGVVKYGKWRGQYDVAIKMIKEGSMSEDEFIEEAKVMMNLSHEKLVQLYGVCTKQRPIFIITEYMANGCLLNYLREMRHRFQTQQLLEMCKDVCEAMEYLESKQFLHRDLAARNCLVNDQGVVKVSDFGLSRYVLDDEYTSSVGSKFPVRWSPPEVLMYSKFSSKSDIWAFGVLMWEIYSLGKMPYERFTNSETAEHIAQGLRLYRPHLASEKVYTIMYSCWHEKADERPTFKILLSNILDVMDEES
T3 sequence (P00533 668-1210 limits assumed): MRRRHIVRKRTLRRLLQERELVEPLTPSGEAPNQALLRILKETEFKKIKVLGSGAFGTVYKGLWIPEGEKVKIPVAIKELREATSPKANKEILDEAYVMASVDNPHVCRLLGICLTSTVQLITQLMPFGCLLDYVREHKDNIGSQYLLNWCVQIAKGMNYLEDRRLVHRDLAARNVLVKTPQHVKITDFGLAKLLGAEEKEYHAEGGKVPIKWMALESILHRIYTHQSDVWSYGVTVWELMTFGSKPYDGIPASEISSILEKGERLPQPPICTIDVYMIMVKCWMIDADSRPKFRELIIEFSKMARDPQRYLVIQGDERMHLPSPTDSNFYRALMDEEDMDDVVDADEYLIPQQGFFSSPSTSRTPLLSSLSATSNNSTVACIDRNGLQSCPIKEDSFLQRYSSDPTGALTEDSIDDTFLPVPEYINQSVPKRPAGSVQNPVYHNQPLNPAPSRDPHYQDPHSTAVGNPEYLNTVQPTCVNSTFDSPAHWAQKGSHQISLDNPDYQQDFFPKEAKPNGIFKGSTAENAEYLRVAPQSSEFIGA
T2 sequence (Q06187 whole entry): as the sequence (Q06187 whole entry) above

Take `C=CC(=O)N1CCC[C@H](Nc2nc(Nc3ccc(N4CCOCC4)cc3F)c3c(c2F)CNC3=O)C1` [(S)-6-((1-acryloylpiperidin-3-yl)amino)-7-fluoro-4-((2-fluoro-4-morpholinophenyl)amino)-1,2-dihydrogen-3H-pyrrolo[3,4-c]pyridin-3-one, reference compound]: the IC50 at BTK WT came out at 48 nM.
For the molecule `C=CC(=O)N1CCC[C@@H](Nc2nc(Nc3ccc(N4CCOCC4)cc3F)c3c(c2F)CNC3=O)C1` [Compound of formula X, (R)-6-((1-acryloylpiperidin-3-yl)amino)-7-fluoro-4-((2-fluoro-4-morpholinophenyl)amino)-1,2-dihydrogen-3H-pyrrolo[3,4-c]pyridin-3-one], the IC50 against BTK WT came out at 2.4 nM; against βBTK Y223 it was 3 nM; at wild-type EGFR kinase (10 μM ATP, read-out: EGFR WT IC50) it was 932 nM. Besides, the “selectivity BTK WT kinase over wild-type EGFR kinase (in words)” value at wild-type EGFR kinase (comparison of tables 14 and 16) was “selective inhibitory activities against BTK WT kinase”. Also, the Content % was determined as 100.00% in data set [1] (0 day); 100.62% in data set [1] (40° C./75% RH, 8 days); 100.70% in data set [1] (40° C./75% RH, 14 days); 100.82% in [1] (60° C., 8 days); 100.81% in data set [1] (60° C., 14 days). Besides, the “Total Impurity %” value in data set [1] (0 day) is reported as 0%; in [1] (40° C./75% RH, 8 days), 0%; in [1] (40° C./75% RH, 14 days), 0%; in data set [1] (60° C., 8 days) it was 0%; in [1] (60° C., 14 days), 0%. In addition, in data set [1] (40° C./75% RH and 60° C., 8 days and 14 days), the “chemical stability (conclusion in words)” value is reported as “stable”. The Solubility is at least 11380 µg/mL in “Solubility experiment” (0.1M HCl medium, listed as Amorphous); 11 µg/mL in the data set “Solubility experiment” (H2O, listed as Amorphous); 9 µg/mL in “Solubility experiment” (pH 4.5 medium, listed as Amorphous); 7 µg/mL in the data set “Solubility experiment” (pH 6.8 medium, listed as Amorphous).
Take `C=CC(=O)N1CCC[C@@H](Nc2nc(Nc3ccc(N4CCOCC4)cc3F)c3c(c2F)CNC3=O)C1` [crystal form I, (R)-6-((1-acryloylpiperidin-3-yl)amino)-7-fluoro-4-((2-fluoro-4-morpholinophenyl)amino)-1,2-dihydrogen-3H-pyrrolo[3,4-c]pyridin-3-one]: the Solubility is at least 4240 µg/mL in the data set “Solubility experiment” (0.1M HCl medium); 8 µg/mL (≈ 16 µM) in “Solubility experiment” (pH 4.5 medium, pH 4.5, aqueous buffer, thermodynamic from solid, pH 4.5 medium, read-out: Solubility); 6 µg/mL (≈ 12 µM) in the data set “Solubility experiment” (pH 6.8 medium, pH 6.8, aqueous buffer, thermodynamic from solid, pH 6.8 medium, read-out: Solubility); 7 µg/mL (≈ 14 µM) in “Solubility experiment” (water, thermodynamic from solid, H2O, read-out: Solubility). Besides, the “form obtained from the mixture of amorphous and crystal forms I, II, III (XRD)” value in [2] (acetone), in data set [2] (acetonitrile), in [2] (ethyl acetate) and in data set [2] (isopropanol) was “stable crystal form” throughout. In addition, the Content % in [3] (0 day) was 100.11%; in data set [3] (60° C., 1 week), 99.91%; in [3] (60° C., 2 weeks) it was 99.76%. The Relative substance % result in data set [3] (0 day) is recorded as “none”; in data set [3] (60° C., 1 week), “none”; in [3] (60° C., 2 weeks), “none”. Further, the “chemical stability (conclusion in words)” value in data set [3] (60° C., 1 week and 2 weeks) is reported as “stable”. Further, the “crystal form stability by XRD” value in [3] (60° C., 1 week and 2 weeks) is “has not changed”. Further, the TGA weight loss entry in data set [4] is “basically no weight loss”. In addition, the “weight gain of moisture absorption” value in [5] (90% RH, 25° C.) was 0.22%. Also, the “hygroscopicity (in words)” value in data set [5] (from DVS at 90% RH) was “slightly hygroscopic”.
Regarding `C=CC(=O)N1CCC[C@@H](Nc2nc(Nc3ccc(N4CCOCC4)cc3F)c3c(c2F)CNC3=O)C1` [crystal form III, (R)-6-((1-acryloylpiperidin-3-yl)amino)-7-fluoro-4-((2-fluoro-4-morpholinophenyl)amino)-1,2-dihydrogen-3H-pyrrolo[3,4-c]pyridin-3-one], in data set [2] (ethanol), the “form obtained from the mixture of amorphous and crystal forms I, II, III (XRD)” value was “stable crystal form”.

For the origin of these results see US20210395247A1, “BTK INHIBITORS, PHARMACEUTICALLY ACCEPTABLE SALTS, POLYMORPHS AND APPLICATION THEREOF” (SHANGHAI HAIYAN PHARMACEUTICAL TECHNOLOGY CO., LTD., priority 2019, published 2021).
